Source: paper PMC11206988, “Study on the Effect of Pharmaceutical Excipient PEG400 on the Pharmacokinetics of Baicalin in Cells Based on MRP2, MRP3, and BCRP Efflux Transporters” (Pharmaceutics, 2024)
Like-named read-outs stand apart in the source and are kept apart here.

Target: T1, BCRP (Homo sapiens, UniProt Q9UNQ0)
T1 construct: expressed in transfected cells; host or cells: MDCK II
T1 sequence (Q9UNQ0 1-655): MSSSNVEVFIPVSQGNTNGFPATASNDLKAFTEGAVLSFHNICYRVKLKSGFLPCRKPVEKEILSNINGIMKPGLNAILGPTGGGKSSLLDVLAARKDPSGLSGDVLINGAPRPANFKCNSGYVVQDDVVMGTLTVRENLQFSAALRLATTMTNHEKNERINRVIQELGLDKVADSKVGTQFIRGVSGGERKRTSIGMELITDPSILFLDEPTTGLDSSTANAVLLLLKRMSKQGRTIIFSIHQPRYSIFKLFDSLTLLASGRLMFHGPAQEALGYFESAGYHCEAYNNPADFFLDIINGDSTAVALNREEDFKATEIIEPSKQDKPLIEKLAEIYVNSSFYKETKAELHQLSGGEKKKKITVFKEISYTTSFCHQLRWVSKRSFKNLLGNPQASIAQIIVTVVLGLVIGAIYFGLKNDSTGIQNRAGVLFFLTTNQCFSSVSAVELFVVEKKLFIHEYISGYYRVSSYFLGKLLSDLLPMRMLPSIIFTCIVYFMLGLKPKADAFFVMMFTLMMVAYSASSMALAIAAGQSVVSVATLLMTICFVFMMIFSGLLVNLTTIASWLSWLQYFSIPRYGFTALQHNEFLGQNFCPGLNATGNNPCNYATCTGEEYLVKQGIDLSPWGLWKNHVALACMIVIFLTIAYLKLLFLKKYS
Assay: Transport of baicalin across MDCK II-BCRP cell monolayer (transwell)
Type: in vitro ADME
Details: pH 7.4, MDCK II-BCRP
Description: The cells were inoculated at a density of 0.5 mL (1 × 10^5) in the upper layer of the transwell plate (AP side), and the culture was changed daily after the lower layer was added with 1.5 mL of complete medium without cells every other day. After 5–7 days of growth, the supernatant was aspirated and discarded, and the cell monolayer was rinsed twice with 37 °C Hank’s Balanced Salt Solution (HBSS, pH 7.4). The electrical resistance of the cell monolayer compartments was measured with a resistivity meter (TEER), and the integrity of the cell monolayer was monitored using TEER. The differentiation of MDCK II-WT, MDCK II-MRP2, MDCK II-MRP3, and MDCK II-BCRP cells was examined by determining sodium fluorescein permeability prior to transit experiments. This was done in order to determine the integrity of the cell monolayer. When the TEER value of the cell monolayer was greater than 150 Ω·cm^2 and the MDCK II-MRP2, MDCK II-MRP3, and MDCK II-BCRP sodium fluorescein permeability was less than 0.5 × 10^−6 cm/s or the MDCK II-WT sodium fluorescein permeability was less than 1 × 10^−6 cm/s, the cell monolayer was considered intact and suitable for transit experiments. TEER = (TEERcell monolayer − TEERblank) × Aarea(1) wherein TEERcell monolayer is the resistance of the cell monolayer read directly from the Millicell ERS-2 resistivity meter, and TEERblank is the resistance read by inserting a blank HBSS (no cells) only. Aarea is the surface area of the filter membrane, 1.12 cm^2.
In this experiment, a 100 μM baicalin solution (dissolved in HBSS) containing different concentrations of PEG400 (0.25%, 0.5%, and 1%) was employed as the test solution, while a solution without PEG400 was used as the blank test solution, which was added to AP or BL chambers, respectively. In the top to basolateral (AP-BL) transport experiment, the 0.5 mL sample added to the apical side (AP) was utilized as the supply room, and the HBSS preheated to 1.5 mL 37 °C was added to the basolateral (BL) as the receiving chamber. Conversely, in the basal low lateral to top (BL-AP) transport experiment, the 1.5 mL sample (dissolved in HBSS) was added to the BL side as the supply room, and the 0.5 mL preheated HBSS was added as a receiving room on the AP side. Once the aforementioned steps had been completed, the transwell was placed on a 37 °C thermostatic oscillator at 60 r/min, and 100 μL was withdrawn from the receiving cell or 10 μL from the supply chamber at 30, 60, 90, and 120 min, depending on the experiment, and replenished with an equal volume of blank 37 °C preheated HBSS. The samples were utilized to precipitate the proteins with 100 μL of methanol containing the internal standard for 10 min. After centrifugation at 16,000× g for 15 min at 4 °C, the supernatant was collected in a volume of 70 μL. The contents were determined by UPLC-MS/MS, and apparent permeability coefficients (PAPP) and efflux ratios (ER) were calculated.
The formulas for calculating Papp and ER of monolayer and monolayer are as follows:(2) Papp=dQ/dt/AC0 wherein dQ/dt (ng/mL·s) is the transit rate (ng/mL·s); A is the membrane area (1.12 cm^2); and C0 (ng/mL) is the initial concentration of the sample in the supply chamber. ER = PappBL-AP/PappAP-BL (3) wherein PappBL-AP is the apparent permeability coefficient when the BL is added to the sample, and PappAP-BL is the apparent permeability coefficient when the sample is added at the top side (AP).

Question: `O=C(O)[C@H]1O[C@@H](Oc2cc3oc(-c4ccccc4)cc(=O)c3c(O)c2O)[C@H](O)[C@@H](O)[C@@H]1O` [BG, Baicalein-7-O-β-D-glucuronide] was tested. Which Papp A→B at 120 min, 100 μM (100 μM BG + 0.25% PEG400) did it give?
Answer: 5.64 ± 0.48 ×10⁻⁶ cm/s

Question: And the Papp B→A at 120 min, 100 μM (100 μM BG + 0.25% PEG400)?
Answer: 8.98 ± 0.42 ×10⁻⁶ cm/s

Question: And the efflux ratio at 120 min, 100 μM (100 μM BG + 0.25% PEG400, read-out: ER)?
Answer: 1.59 ± 0.06

Question: What about the Papp A→B at 120 min, 100 μM (100 μM BG + 0.5% PEG400) of the same molecule?
Answer: 7.4 ± 0.43 ×10⁻⁶ cm/s

Question: And the Papp B→A at 120 min, 100 μM (100 μM BG + 0.5% PEG400)?
Answer: 7.51 ± 0.47 ×10⁻⁶ cm/s

Question: What about the efflux ratio at 120 min, 100 μM (100 μM BG + 0.5% PEG400, read-out: ER) of the same molecule?
Answer: 1.02 ± 0.04

Question: And the Papp A→B at 120 min, 100 μM (100 μM BG + 1% PEG400)?
Answer: 8.59 ± 0.19 ×10⁻⁶ cm/s

Question: And the Papp B→A at 120 min, 100 μM (100 μM BG + 1% PEG400)?
Answer: 6.9 ± 0.04 ×10⁻⁶ cm/s

Question: What about the efflux ratio at 120 min, 100 μM (100 μM BG + 1% PEG400, read-out: ER) of the same molecule?
Answer: 0.8 ± 0.02

Question: And the Papp A→B at 120 min, 100 μM (100 μM BG alone)?
Answer: 3.43 ± 0.07 ×10⁻⁶ cm/s

Question: What about the Papp B→A at 120 min, 100 μM (100 μM BG alone) of the same molecule?
Answer: 10.34 ± 0.02 ×10⁻⁶ cm/s

Question: And the efflux ratio at 120 min, 100 μM (100 μM BG alone, read-out: ER)?
Answer: 3.01 ± 0.05
